# Source: ChEMBL document CHEMBL1141132, “6-[1-(2,6-difluorophenyl)ethyl]pyrimidinones antagonize cell proliferation and induce cell differentiation by inhibiting (a nontelomeric) endogenous reverse transcriptase” (2005)
# Assays:
# A-375 [1] = assay: Effect on apoptotic human A-375 cell death treated with DMSO(control) at a concentration of 10 uM; assay type: functional
# A-375 [2] = assay: Effect on necrotic human A-375 cell death treated with DMSO(control) at a concentration of 50 uM; assay type: functional
# A-375 [3] = assay: Effect on alive human A-375 cell death treated with DMSO(control) at a concentration of 40 uM; assay type: functional
# A-375 [4] = assay: Effect on alive human A-375 cell death treated with DMSO(control) at a concentration of 50 uM; assay type: functional
# A-375 [5] = assay: Effect on alive human A-375 cell death treated with DMSO(control) at a concentration of 10 uM; assay type: functional
# A-375 [6] = assay: Percentage of alive human A-375 cells relative to DMSO-treated control at a concentration of 10 uM
# A-375 [7] = assay: Percentage inhibition of proliferation against alive human A-375 cells treated with DMSO (control) at a concentration of 40 uM; assay type: functional
# A-375 [8] = assay: Effect on apoptotic human A-375 cell death treated with DMSO(control) at a concentration of 50 uM; assay type: functional
# A-375 [9] = assay: Percentage inhibition of proliferation against alive human A-375 cells treated with DMSO (control) at a concentration of 50 uM; assay type: functional
# A-375 [10] = assay: Effect on necrotic human A-375 cell death treated with DMSO(control) at a concentration of 40 uM; assay type: functional
# A-375 [11] = assay: Effect on apoptotic human A-375 cell death treated with DMSO(control) at a concentration of 25 uM; assay type: functional
# A-375 [12] = assay: Effect on necrotic human A-375 cell death treated with DMSO(control) at a concentration of 10 uM; assay type: functional
# A-375 [13] = assay: Effect on apoptotic human A-375 cell death treated with DMSO(control) at a concentration of 40 uM; assay type: functional
# A-375 [14] = assay: Effect on necrotic human A-375 cell death treated with DMSO(control) at a concentration of 25 uM; assay type: functional
# A-375 [15] = assay: Percentage of alive human A-375 cells relative to DMSO-treated control at a concentration of 25 uM
# A-375 [16] = assay: Effect on alive human A-375 cell death treated with DMSO(control) at a concentration of 25 uM; assay type: functional
# A-375 [17] = assay: Percentage of alive human A-375 cells relative to DMSO-treated control at a concentration of 15 uM
# A-375 [18] = assay: Percentage inhibition of proliferation against alive human A-375 cells treated with DMSO (control) at a concentration of 350 uM; assay type: functional
Compound,Activity (A-375 [1]),Activity (A-375 [2]),Activity (A-375 [3]),Activity (A-375 [4]),Activity (A-375 [5]),alive cells at 10 µM (A-375 [6]),inhibition at 40 µM (A-375 [7]),Activity (A-375 [8]),inhibition at 50 µM (A-375 [9]),Activity (A-375 [10]),Activity (A-375 [11]),Activity (A-375 [12]),Activity (A-375 [13]),Activity (A-375 [14]),alive cells at 25 µM (A-375 [15]),Activity (A-375 [16]),alive cells at 15 µM (A-375 [17]),inhibition at 350 µM (A-375 [18])
Cc1c(C(C)c2c(F)cccc2F)nc(SC2CCCC2)[nH]c1=O (centres undefined),2.3%,7.2%,98.7%,80%,96.7%,77%,65%,12.8%,14%,0.3%,2.6%,1%,1%,1%,72%,96.4%,,
O=C1Nc2ccc(Cl)cc2[C@@](C#CC2CC2)(C(F)(F)F)O1 [EFAVIRENZ],,,,,,,,,,,,,,,,,51%,
Cc1c(C(C)c2c(F)cccc2F)nc(N(C)C)[nH]c1=O (centres undefined),1.8%,2.6%,96%,89%,97.4%,91%,42%,8.4%,30%,0.9%,2.3%,0.8%,3.1%,1%,86%,96.3%,,
Cc1ccnc2c1NC(=O)c1cccnc1N2C1CC1 [NEVIRAPINE],,,,,,,,,,,,,,,,,,35%
